Values quoted from earlier work in patent US20050209315A1, “Bioavailable nutritional supplement and method of treatment of malabsorption” (priority 2004, published 2005).

Details: relative to alpha tocopherol

**Q.** Which “more antioxidant activity than alpha tocopherol” value does the source give for alpha-tocotrienol [Alpha tocotrienol] here?
**A.** The value was 40-60%.
